Data published in ChEMBL document CHEMBL1144052, “Cytotoxic 3,4-secoapotirucallanes from Aaglaia argentea bark” (J Nat Prod, 1999).
≈ marks a conversion by molar mass, not a printed value. Calls of active or inactive are those of the source. No cut-off for these calls is given here.

Tested on: KB
Assay: Cytotoxicity against human KB cells
Assay type: functional, cell-based

C/C=C(/C)[C@@H](O)C(=O)O[C@@H]1C[C@H](C(C)(C)O)[C@](C)(CCC(=O)O)[C@H]2[C@H](OC(=O)[C@H](O)/C(C)=C/C)C[C@]3(C)C(=CC[C@H]3[C@H]3CO[C@H](C=C(C)C)C3)[C@@]21C
Activity: inactive

C/C=C(\C)[C@@H](O)C(=O)O[C@@H]1C[C@H](C(C)(C)O)[C@](C)(CCC(=O)O)[C@H]2CC[C@]3(C)C(=CC[C@H]3[C@H]3CO[C@H](C=C(C)C)C3)[C@@]21C
Activity: inactive

C/C=C(\C)[C@@H](O)C(=O)O[C@@H]1C[C@H](C(C)(C)O)[C@](C)(CCC(=O)O)[C@H]2[C@H](OC(=O)[C@H](O)C(C)C)C[C@]3(C)C(=CC[C@H]3[C@H]3CO[C@H](C=C(C)C)C3)[C@@]21C
Activity: inactive

C/C=C(\C)[C@@H](O)C(=O)O[C@@H]1C[C@H](C(C)(C)O)[C@](C)(CCC(=O)O)[C@H]2[C@H](OC(=O)[C@H](O)[C@H](C)CC)C[C@]3(C)C(=CC[C@H]3[C@H]3CO[C@H](C=C(C)C)C3)[C@@]21C
Activity: inactive

CC(C)=C[C@@H]1C[C@@H]([C@@H]2CC=C3[C@@]4(C)[C@H](CC[C@]32C)[C@@](C)(CCC(=O)O)[C@@H](C(C)(C)O)C[C@H]4OC(=O)[C@H](O)C(C)C)CO1
Activity: inactive

CC[C@@H](C)[C@@H](O)C(=O)O[C@@H]1C[C@H](C(C)(C)O)[C@](C)(CCC(=O)O)[C@H]2CC[C@]3(C)C(=CC[C@H]3[C@H]3CO[C@H](C=C(C)C)C3)[C@@]21C
Activity: inactive

CC[C@@H](C)[C@@H](O)C(=O)O[C@@H]1C[C@]2(C)C(=CC[C@H]2[C@H]2CO[C@H](C=C(C)C)C2)[C@@]2(C)[C@H]1[C@@](C)(CCC(=O)O)[C@@H](C(C)(C)O)C[C@H]2OC(=O)[C@H](O)C(C)C
Activity: inactive

CC[C@@H](C)[C@@H](O)C(=O)O[C@@H]1C[C@]2(C)C(=CC[C@H]2[C@H]2CO[C@H](C=C(C)C)C2)[C@@]2(C)[C@H]1[C@@](C)(CCC(=O)O)[C@@H](C(C)(C)O)C[C@H]2OC(=O)[C@H](O)[C@H](C)CC
Activity: inactive

CC[C@@H](C)[C@@H](O)C(=O)O[C@@H]1C[C@H](C(C)(C)O)[C@](C)(CCC(=O)OC)[C@H]2CC[C@]3(C)C(=CC[C@H]3[C@H]3CO[C@H](C=C(C)C)C3)[C@@]21C [ARGENTINIC ACID A METHYL ESTER]
IC50: 2 mg/L (≈ 3.24 µM)

COC(=O)CC[C@@]1(C)[C@@H](C(C)(C)O)C[C@@H](OC(=O)[C@H](O)C(C)C)[C@@]2(C)C3=CC[C@@H]([C@H]4CO[C@H](C=C(C)C)C4)[C@]3(C)CC[C@H]12 [ARGENTINIC ACID B METHYL ESTER]
IC50: 2 mg/L (≈ 3.32 µM)

C/C=C(\C)[C@@H](O)C(=O)O[C@@H]1C[C@H](C(C)(C)O)[C@](C)(CCC(=O)OC)[C@H]2CC[C@]3(C)C(=CC[C@H]3[C@H]3CO[C@H](C=C(C)C)C3)[C@@]21C [ARGENTINIC ACID C METHYL ESTER]
IC50: 2 mg/L (≈ 3.25 µM)

C/C=C(\C)[C@@H](O)C(=O)O[C@@H]1C[C@H](C(C)(C)O)[C@](C)(CCC(=O)OC)[C@H]2[C@H](OC(=O)[C@H](O)[C@H](C)CC)C[C@]3(C)C(=CC[C@H]3[C@H]3CO[C@H](C=C(C)C)C3)[C@@]21C [ARGENTINIC ACID D METHYL ESTER]
IC50: 1 mg/L (≈ 1.34 µM)

C/C=C(\C)[C@@H](O)C(=O)O[C@@H]1C[C@H](C(C)(C)O)[C@](C)(CCC(=O)OC)[C@H]2[C@H](OC(=O)[C@H](O)C(C)C)C[C@]3(C)C(=CC[C@H]3[C@H]3CO[C@H](C=C(C)C)C3)[C@@]21C [ARGENTINIC ACID E METHYL ESTER]
IC50: 3.5 mg/L (≈ 4.79 µM)

CC[C@@H](C)[C@@H](O)C(=O)O[C@@H]1C[C@]2(C)C(=CC[C@H]2[C@H]2CO[C@H](C=C(C)C)C2)[C@@]2(C)[C@H]1[C@@](C)(CCC(=O)OC)[C@@H](C(C)(C)O)C[C@H]2OC(=O)[C@H](O)C(C)C [ARGENTINIC ACID F METHYL ESTER]
IC50: 2 mg/L (≈ 2.73 µM)

CC[C@@H](C)[C@@H](O)C(=O)O[C@@H]1C[C@]2(C)C(=CC[C@H]2[C@H]2CO[C@H](C=C(C)C)C2)[C@@]2(C)[C@H]1[C@@](C)(CCC(=O)OC)[C@@H](C(C)(C)O)C[C@H]2OC(=O)[C@H](O)[C@H](C)CC [ARGENTINIC ACID G METHYL ESTER]
IC50: 2.5 mg/L (≈ 3.35 µM)

C/C=C(/C)[C@@H](O)C(=O)O[C@@H]1C[C@H](C(C)(C)O)[C@](C)(CCC(=O)OC)[C@H]2[C@H](OC(=O)[C@H](O)/C(C)=C/C)C[C@]3(C)C(=CC[C@H]3[C@H]3CO[C@H](C=C(C)C)C3)[C@@]21C [ARGENTINIC ACID H METHYL ESTER]
IC50: 2 mg/L (≈ 2.69 µM)
